Assays:
[1] = molecular target: T1, Mast cell carboxypeptidase A (Homo sapiens, UniProt P15088); assay: Compound was tested for inhibitory activity against carboxypeptidase A; Not active
T1 sequence (P15088 whole entry): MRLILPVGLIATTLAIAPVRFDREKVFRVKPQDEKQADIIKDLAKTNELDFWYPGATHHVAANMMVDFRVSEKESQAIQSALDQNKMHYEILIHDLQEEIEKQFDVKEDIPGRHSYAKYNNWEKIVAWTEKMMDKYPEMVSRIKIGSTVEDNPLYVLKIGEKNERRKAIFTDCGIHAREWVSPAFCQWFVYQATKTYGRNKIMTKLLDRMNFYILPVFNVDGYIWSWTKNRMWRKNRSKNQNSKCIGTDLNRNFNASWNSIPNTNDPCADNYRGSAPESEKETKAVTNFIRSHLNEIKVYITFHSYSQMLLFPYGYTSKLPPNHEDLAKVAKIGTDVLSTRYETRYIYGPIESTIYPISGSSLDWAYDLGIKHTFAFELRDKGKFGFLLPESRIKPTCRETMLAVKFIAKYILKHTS

[2] = Compound was tested for inhibitory activity against Carboxypeptidase A

SMILES	Ki [1]	Ki [2] [µM]
O=C(O)[C@H](CS)Cc1ccccc1	Not Active	
O=C(O)C(CS)Cc1ccccc1 (racemic)		11

Source: ChEMBL document CHEMBL1151589, “Synthesis and inhibitory activity of optically active 2-benzyl-3-mercaptopropanoic acid against carboxypeptidase A” (Bioorg Med Chem Lett, 1993)
